Data on three molecules can be found in paper PMC10388363, “Novel 1,4-Dihydropyridines as Specific Binders and Activators of SIRT3 Impair Cell Viability and Clonogenicity and Downregulate Hypoxia-Induced Targets in Cancer Cells” (Journal of Medicinal Chemistry, 2023).

Structures are written as SMILES.

In one experiment the target is T1, human SIRT1 (Homo sapiens, UniProt Q96EB6).
T1 construct: using constructs in pET15b (Sirt1); His tag (N, cleaved yes); made in house; host or cells: Escherichia coli
T1 sequence (Q96EB6 1-747): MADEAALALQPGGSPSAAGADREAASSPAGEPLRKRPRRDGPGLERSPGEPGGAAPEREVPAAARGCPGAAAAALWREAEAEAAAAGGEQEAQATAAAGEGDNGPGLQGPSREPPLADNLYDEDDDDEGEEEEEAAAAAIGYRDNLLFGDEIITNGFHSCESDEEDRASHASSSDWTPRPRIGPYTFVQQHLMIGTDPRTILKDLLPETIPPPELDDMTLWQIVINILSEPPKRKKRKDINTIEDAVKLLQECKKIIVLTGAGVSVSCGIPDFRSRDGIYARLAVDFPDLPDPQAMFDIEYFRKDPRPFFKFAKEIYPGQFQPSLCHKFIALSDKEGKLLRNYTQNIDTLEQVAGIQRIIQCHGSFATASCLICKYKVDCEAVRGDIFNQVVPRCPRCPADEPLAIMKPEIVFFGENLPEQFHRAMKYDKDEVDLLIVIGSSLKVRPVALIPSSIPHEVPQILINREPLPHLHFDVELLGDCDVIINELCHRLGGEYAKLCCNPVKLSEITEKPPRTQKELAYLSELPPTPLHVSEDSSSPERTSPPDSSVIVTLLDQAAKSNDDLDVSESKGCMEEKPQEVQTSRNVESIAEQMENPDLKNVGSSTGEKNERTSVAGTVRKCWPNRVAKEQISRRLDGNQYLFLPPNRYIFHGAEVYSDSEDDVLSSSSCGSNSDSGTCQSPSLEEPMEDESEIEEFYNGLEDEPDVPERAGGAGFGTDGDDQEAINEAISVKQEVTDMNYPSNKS
As to the kind of experiment: PncA/GDH-coupled deacylation assay, SIRT1 activation (p53-acK381 substrate). Format: biochemical. Conditions: for effect on SIRT1: 10 μM compound; for SIRT1 activation: 100 μM compound. As for the experimental part:
(§1) To avoid artifacts and other non-specific effects, instead of the “Fluor-de-Lys” (FdL) substrate, we used a PncA/GDH-coupled deacylation assay by measuring the NADPH oxidation to NADP^+ that relies on isoform-specific non-modified physiological acetyl or succinyl substrates [p53-acK381 for SIRT1, α-tubulin-[…] for SIRT2, acetyl-CoA synthetase 2 (ACS2)-acK642 for SIRT3, and CPS1-succK537 for SIRT5].[59] The assays were carried out using the 1,4-DHP derivatives 2a–n and 3a–d against SIRT3, including the prototype compounds 2 and 3 as positive controls.
(§2) N-terminally his-tagged human sirtuins were expressed in Escherichia coli using constructs in pET15b (Sirt1) or pET151D/Topo (Sirt3-114-380 and Sirt5-34-302).[4],[59],[61] Sirt2-43-356 was expressed from a modified pET19b containing a TEV protease cleavage site and an N-terminal SUMO-tag.[59],[79] Proteins were expressed and purified as described elsewhere.[59],[61],[79]−[81] In brief, proteins were expressed in E. coli, crude extracts were cleared by centrifugation, and the proteins were affinity purified using NiNTA beads.
(§3) Sirtuin deacylation activities were analyzed by using a coupled enzymatic assay as described in.[59],[82] For initial modulation screenings, substrate peptide specificity analysis, and compound titrations, 1.5 μM sirtuin was incubated with 50 μM substrate peptide and 100 μM NAD^+ in absence or presence of 10 μM, 100 μM or the indicated concentration of 1,4-DHP at a final DMSO concentration of 5%. For kinetic experiments, 1.5 μM sirtuin was incubated with saturating concentrations of either substrate peptide (0.4 mM) or NAD^+ (2 mM), with the second substrate’s concentration being varied in absence or presence of 200 μM 1,4-DHP at a final concentration of 5% DMSO. Potential 1,4-DHP effects on the coupled enzymes GDH and nicotinamidase were tested in control assays containing 50 μM NAM instead of the substrate peptide.

In another experiment the target is T2, human SIRT2 (Homo sapiens, UniProt Q8IXJ6).
T2 construct: Sirt2-43-356 was expressed from a modified pET19b; SUMO-tag (with TEV protease cleavage site) (N, cleaved yes); His tag (N, cleaved yes); made in house; host or cells: Escherichia coli
T2 sequence (Q8IXJ6 43-356): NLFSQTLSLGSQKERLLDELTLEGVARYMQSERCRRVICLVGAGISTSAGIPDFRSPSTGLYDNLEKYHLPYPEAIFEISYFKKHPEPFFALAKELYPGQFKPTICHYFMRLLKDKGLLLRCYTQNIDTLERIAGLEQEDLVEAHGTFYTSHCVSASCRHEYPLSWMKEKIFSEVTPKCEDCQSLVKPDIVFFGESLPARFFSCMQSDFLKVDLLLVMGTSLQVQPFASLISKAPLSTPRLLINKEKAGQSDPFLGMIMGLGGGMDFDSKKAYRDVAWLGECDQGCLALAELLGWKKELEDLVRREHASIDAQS
As to the kind of experiment: PncA/GDH-coupled deacylation assay, SIRT2 activation (α-tubulin-acK25 substrate). Format: biochemical. Conditions: for effect on SIRT2: 10 μM compound; for SIRT2 activation: 100 μM compound. As for the experimental part: as §1, §2, §3

Take `CCOC(=O)C1=CN(C(=O)c2cc(OC)cc(OC)c2)C=C(C(=O)OCC)C1c1ccccc1` [Compound 3d, Diethyl 1-(3,5-dimethoxybenzoyl)-4-phenyl-1,4-dihydropyridine-3,5-dicarboxylate]: on human SIRT1, the “effect on SIRT1” value is given as “negligible effects” and the SIRT1 activation was determined as 130%. In addition, the “effect on SIRT2” value on human SIRT2 is given as “negligible effects”.

For `CCOC(=O)C1=CN(C(=O)c2cccc(OC)c2)C=C(C(=O)OCC)C1c1ccccc1` [Compound 3a, Diethyl 1-(3-methoxybenzoyl)-4-phenyl-1,4-dihydropyridine-3,5-dicarboxylate], at human SIRT1, the “effect on SIRT1” value is reported as “negligible effects” and the SIRT1 activation was 164%. Also, on human SIRT2, the “effect on SIRT2” value is “negligible effects” and the SIRT2 activation came out at 130%.

Turning to `CCOC(=O)C1=CN(C(=O)c2ccc(OC)c(OC)c2)C=C(C(=O)OCC)C1c1ccccc1` [Compound 3c, Diethyl 1-(3,4-dimethoxybenzoyl)-4-phenyl-1,4-dihydropyridine-3,5-dicarboxylate], at human SIRT1, the “effect on SIRT1” value was “negligible effects” and the SIRT1 activation turned out to be 156%. Moreover, at human SIRT2, the “effect on SIRT2” value is “negligible effects” and the SIRT2 activation was 136%.
